Laboratory results reported in patent publication US20240216402A1, “PHARMACEUTICAL COMPOSITION, AND PREPARATION METHOD THEREFOR AND APPLICATION THEREOF” (QILU PHARMACEUTICAL CO., LTD., priority 2021, published 2024).
In brackets after ≈: the same amount, converted by molar mass.

Tests used:
[1] = particle size distribution of raw material samples; assay type: physicochemical
Source text: In the present invention, D50 refers to the particle size corresponding to the cumulative volume distribution percentage of spirocyclic aryl phosphorus oxides or pharmaceutically acceptable salts thereof reaching 50% measured from a small particle size; D90 refers to the particle size corresponding to the cumulative volume distribution percentage of spirocyclic aryl phosphorus oxides or pharmaceutically acceptable salts thereof reaching 90% measured from a small particle size.

[2] = Determination of solubility in buffers at different pHs (saturated solubility by HPLC); assay type: physicochemical; details: for solubility at 24 h: thermodynamic from solid, 37° C.
Description: (§1) The solubilities of spirocyclic aryl phosphorus oxides in buffers at different pHs were determined. Nine test samples of 4 mg were each weighed and added to sample bottles of 1.5 mL, and then different solvents (0.1 mol/L HCl, 0.01 mol/L HCl, pH3.5 acetate buffer, pH4.5 acetate buffer, pH5.5 phosphate buffer, pH6.5 phosphate buffer, pH6.8 phosphate buffer, pH7.5 phosphate buffer and water) of 1 mL were added. According to the dissolution, the raw material compounds were continuously added to form a saturated solution. A magneton was added to the saturated solution and then stirred on a magnetic agitator (temperature was 37° C., away from light). After stirring for 24 hours, the samples were taken and centrifuged, and the residual solid samples in the lower layer were tested by X-ray powder diffraction (XRPD). The upper sample was filtered by a filter membrane, the final pH value of the filtrate was measured, and the saturated solubility of the compound was determined by high performance liquid chromatography (HPLC).

[3] = XRPD of residual solid in the solubility test; assay type: physicochemical; details: 24 hrs
Description: as §1

[4] = hygroscopicity (description of the substance); assay type: physicochemical
Source text: (§2) The solubility of the drug directly influences the dissolution rate of the composition containing the drug, which in turn influences the bioavailability of the pharmaceutical composition. Therefore, how to improve the dissolution rate of pharmaceutical compositions containing spirocyclic aryl phosphorus oxide in solvents other than hydrochloric acid has become an urgent problem to be solved.

[5] = solubility in solvents (description of the substance); assay type: physicochemical
Source text: as §2

[6] = tested on: other related serine, threonine and tyrosine except EGFR wild type; assay: kinase selectivity; assay type: biochemical; details: in the detected concentration range

COc1cc(N2CCC3(CCN(C)CC3)CC2)ccc1Nc1ncc(Cl)c(Nc2ccccc2P(C)(C)=O)n1 [Sample 1]
Particle size D10 (μm) [1]: 0.7 μm
Particle size D50 (μm) [1]: 5.4 μm
Particle size D90 (μm) [1]: 11.6 μm

COc1cc(N2CCC3(CCN(C)CC3)CC2)ccc1Nc1ncc(Cl)c(Nc2ccccc2P(C)(C)=O)n1 [Sample 2]
Particle size D10 (μm) [1]: 1.3 μm
Particle size D50 (μm) [1]: 10.1 μm
Particle size D90 (μm) [1]: 27.1 μm

COc1cc(N2CCC3(CCN(C)CC3)CC2)ccc1Nc1ncc(Cl)c(Nc2ccccc2P(C)(C)=O)n1 [Sample 3]
Particle size D10 (μm) [1]: 1.6 μm
Particle size D50 (μm) [1]: 13.0 μm
Particle size D90 (μm) [1]: 40.3 μm

COc1cc(N2CCC3(CCN(C)CC3)CC2)ccc1Nc1ncc(Cl)c(Nc2ccccc2P(C)(C)=O)n1 [Sample 4]
Particle size D10 (μm) [1]: 5.0 μm
Particle size D50 (μm) [1]: 23.8 μm
Particle size D90 (μm) [1]: 62 μm

COc1cc(N2CCC3(CCN(C)CC3)CC2)ccc1Nc1ncc(Cl)c(Nc2ccccc2P(C)(C)=O)n1 [Sample 5]
Particle size D10 (μm) [1]: 1.8 μm
Particle size D50 (μm) [1]: 16.1 μm
Particle size D90 (μm) [1]: 69 μm

COc1cc(N2CCC3(CCN(C)CC3)CC2)ccc1Nc1ncc(Cl)c(Nc2ccccc2P(C)(C)=O)n1 [Sample 6]
Particle size D10 (μm) [1]: 2.3 μm
Particle size D50 (μm) [1]: 18.2 μm
Particle size D90 (μm) [1]: 79.6 μm

COc1cc(N2CCC3(CCN(C)CC3)CC2)ccc1Nc1ncc(Cl)c(Nc2ccccc2P(C)(C)=O)n1 [Sample 7]
Particle size D10 (μm) [1]: 6.8 μm
Particle size D50 (μm) [1]: 47.9 μm
Particle size D90 (μm) [1]: 122 μm

COc1cc(N2CCC3(CCN(C)CC3)CC2)ccc1Nc1ncc(Cl)c(Nc2ccccc2P(C)(C)=O)n1 [Sample 8]
Particle size D10 (μm) [1]: 7.8 μm
Particle size D50 (μm) [1]: 63.1 μm
Particle size D90 (μm) [1]: 193 μm

COc1cc(N2CCC3(CCN(C)CC3)CC2)ccc1Nc1ncc(Cl)c(Nc2ccccc2P(C)(C)=O)n1 [spirocyclic aryl phosphorus oxide, (2-((5-chloro-2-((2-methoxy-4-(9-methyl-3,9-diazaspiro[5.5]undecan-3-yl)phenyl)amino)pyrimidin-4-yl)amino)phenyl)dimethylphosphine oxide]
Dose/solubility (mL, in 60 mg specifications) ([2]; 0.01 mol/L HCl (pH2.02)): 8.69 mL
Conclusions (solubility class) ([2]; 0.1 mol/L HCl (pH 1.02)): soluble (10 ml to less than 30 ml)
Dose/solubility (mL, in 60 mg specifications) ([2]; 0.1 mol/L HCl (pH 1.02)): 1.12 mL
solubility at 24 h ([2]; pH 2.02, simulated gastric fluid, 0.01 mol/L HCl (pH2.02)): 6900 µg/mL (≈ 12.1 mM)
solubility at 24 h ([2]; pH 3.5 acetate buffer, aqueous buffer, pH 3.5 buffer (pH 3.53), acetate): 279000 µg/mL (≈ 491 mM)
Dose/solubility (mL, in 60 mg specifications) ([2]; pH 3.5 buffer (pH 3.53)): 0.22 mL
solubility at 24 h ([2]; pH 4.5 acetate buffer, aqueous buffer, pH 4.5 buffer (pH 4.49), acetate): 108000 µg/mL (≈ 190 mM)
Dose/solubility (mL, in 60 mg specifications) ([2]; pH 4.5 buffer (pH 4.49)): 0.56 mL
Dose/solubility (mL, in 60 mg specifications) ([2]; pH 5.5 buffer (pH 5.47)): 8.45 mL
solubility at 24 h ([2]; pH 5.5 phosphate buffer, aqueous buffer, pH 5.5 buffer (pH 5.47), phosphate): 7100 µg/mL (≈ 12.5 mM)
Dose/solubility (mL, in 60 mg specifications) ([2]; pH 6.5 buffer (pH 6.45)): 5.41 mL
solubility at 24 h ([2]; pH 6.5 phosphate buffer, aqueous buffer, pH 6.5 buffer (pH 6.45), phosphate): 11100 µg/mL (≈ 19.5 mM)
Dose/solubility (mL, in 60 mg specifications) ([2]; pH 6.8 buffer (pH 6.83)): 16.67 mL
solubility at 24 h ([2]; pH 6.8 phosphate buffer, aqueous buffer, pH 6.8 buffer (pH 6.83), phosphate): 3600 µg/mL (≈ 6.33 mM)
Dose/solubility (mL, in 60 mg specifications) ([2]; pH 7.5 buffer (pH 7.53)): 70.59 mL
solubility at 24 h ([2]; pH 7.5 phosphate buffer, aqueous buffer, pH 7.5 buffer (pH 7.53), phosphate): 850 µg/mL (≈ 1.49 mM)
solubility at 24 h ([2]; simulated gastric fluid, 0.1 mol/L HCl (pH 1.02)): 53400 µg/mL (≈ 93.8 mM)
solubility at 24 h ([2]; water (pH 6.33)): 60 µg/mL (≈ 0.105 mM)
Dose/solubility (mL, in 60 mg specifications) ([2]; water (pH 6.33)): >250 mL
XRPD (crystal form of residual solid) ([3]; 0.01 mol/L HCl (pH2.02)): no change
XRPD (crystal form of residual solid) ([3]; 0.1 mol/L HCl (pH 1.02)): no change
XRPD (crystal form of residual solid) ([3]; pH 3.5 buffer (pH 3.53)): no change
XRPD (crystal form of residual solid) ([3]; pH 4.5 buffer (pH 4.49)): no change
XRPD (crystal form of residual solid) ([3]; pH 5.5 buffer (pH 5.47)): no change
XRPD (crystal form of residual solid) ([3]; pH 6.5 buffer (pH 6.45)): no change
XRPD (crystal form of residual solid) ([3]; pH 6.8 buffer (pH 6.83)): no change
XRPD (crystal form of residual solid) ([3]; pH 7.5 buffer (pH 7.53)): no change
XRPD (crystal form of residual solid) ([3]; water (pH 6.33)): no change
hygroscopicity [4]: almost no hygroscopicity
solubility ([5]; 1 mol/L hydrochloric acid solution): easily soluble
solubility ([5]; 1 mol/L sodium hydroxide solution): practically insoluble, or insoluble
solubility ([5]; acetonitrile): slightly soluble
solubility ([5]; dichloromethane): easily soluble
solubility ([5]; ethanol): slightly soluble
solubility ([5]; methanol): sparingly soluble
solubility ([5]; water): slightly soluble
inhibitory activity to other kinases [6]: Low inhibitory activity
